Earlier results in patent US4904678A, “Sickle cell anemia control” (Norris; Jerome J., priority 1987, dated 1990).

Test system: erythrocytes
Conditions: about 4 mols of potassium cyanate incorporated per mol of hemoglobin tetramer

## N#CO [potassium cyanate]
  Erythrocytes prevented from sickling: up to 80%
